This note sets out measurements from patent US20250122242A1, “SELECTION SYSTEMS, PEPTIDES DETERMINED THEREWITH, AND METHODS OF USING SAME” (Wisconsin Alumni Research Foundation, priority 2023, published 2025).

The target in one experiment is hIAPP-T7n (UniProt P00573+P10997). Conditions: positive selection on hIAPP, high-throughput sequencing; for Rank (positive selection): top enriched sequences. From the text:
Next, we examined if our system could discover inhibitors of other disease-associated APPs. We targeted human islet amyloid polypeptide (hIAPP), which forms amyloid deposits in patients with type-2 diabetes that are hypothesized to contribute to […] dysfunction.^40 To create a selection for hIAPP aggregation inhibitors, we simply cloned hIAPP in place of Aβ42 in our selection circuit (FIG. 2B). We used an SP-encoded CZ6 SICLOPPS library (Z=NDT codon encoded amino acid: R, N, D, C, G, H, I, L, F, S, Y, or V) (˜3×10^6 total sequences). This codon set was chosen to reduce the theoretical library size and facilitate library cloning. The library (total of ˜5×10^6 transformants) was cloned on a SP obtained from an additional 250 hours of PACE using a more stringent selection (FIGS. 10A-10D).
We performed five rounds of selection, diluting the SP pool by ten-fold each round (FIG. 4A). […] To verify that we selected phage with higher activity, we measured the propagation of the SP from each round on hIAPP selection cells, normalizing input phage titers to […] to enable head-to-head comparison between phage pools.
(§1) Single colonies of host cells transformed with the appropriate selection plasmids were used to make overnight cultures in 2×YT with maintenance antibiotics. The overnight culture was diluted (1:100) into 4-5 mL DRM with maintenance antibiotics and incubated at 37° C. with shaking until the OD600 of the culture reached ˜0.5, upon which the expanded phage library was added at a titer of 1×10^6 pfu/mL. The culture was incubated at 37° C. with shaking overnight (13-18 h). The next day, the culture was centrifuged at 8,000 rcf for 2 min to obtain the supernatant containing phage. The collected phage was diluted into fresh host cell cultures (10 to 1,000-fold) for the next round of selection, while the rest was stored at 4° C. for downstream analysis. This process was repeated until a significant increase in phage propagation was observed compared with the parent library. Both positive and negative selection rounds were performed using this procedure.
(§2) Sample preparation. Phage stocks collected from the final rounds of library selection were first amplified using LY0145 and LY0146. The PCR product was purified, and adapters added using LY0147 and LY0148. The resulting PCR product was purified and barcoded through a final PCR using index primers to add unique indices for shared Illumina NovaSeq sequencing. The final PCR product was purified, and the concentration measured by Nanodrop. Further sample quality control was performed by the University of Wisconsin-Madison Biotechnology Center (UWBC).
(§3) High-throughput sequencing and data analysis. High-throughput sequencing was performed by UWBC using a shared sequencing service on the NovaSeq 6000 platform. Sequencing reads were demultiplexed by UWBC and analyzed using custom-written Python scripts.

The target in the next experiment is Aβ42-T7n (UniProt P00573+P05067). As to conditions: for Fold enrichment in negative vs. positive selection: percent reads negative vs. positive selection; for Percent total reads (negative selection) / Rank (negative selection): subsequent negative selection against Aβ42, high-throughput sequencing.
Text: To create a negative selection, we placed gIII-neg, a dominant-negative form of gIII,^44 under PT7 in our selection circuit. Inhibition of a non-target APP (ex. Aβ42) triggers pIII-neg expression and poisons phage proliferation. A second plasmid produces small amounts of pIII from the phage shock promoter (FIG. 16A). All SPs infecting cells encoding this negative selection receive sufficient pIII to propagate. However, SP that carry a promiscuous or false positive cyclic peptide will also produce pIII-neg and generate non-infectious progeny (FIGS. 16B and 16C). We subjected the hIAPP round 5 phage population to four rounds of negative selection, diluting the phage by 100-fold each round (FIG. 5B).
as §1, §2, §3

The next experiment has as its target T1, hIAPP (Homo sapiens, UniProt P10997).
T1 construct: A 1 mg portion of amylin trifluoroacetate salt (Bachem) was purchased as lyophilized solid in a vial; purchased Bachem
T1 sequence (P10997 34-70 limits assumed): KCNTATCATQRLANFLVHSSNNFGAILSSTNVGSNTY
The experiment in a line: ThT fluorescence assay of in vitro hIAPP aggregation. It is filed as biochemical. As to conditions: chemically synthesized peptide, 10 μM hIAPP, PBS pH 6.9, 32° C., quiescent. Here is the method: Preparation of ThT stock solution. To prepare a stock solution of ThT (2-3 mM), 2-4 mg of ThT was added to 3 mL PBS (pH 6.9) in a 15 mL conical tube. The solution was sonicated for 5 min and the supernatant was filtered through a 0.22 μm syringe filter into a 1.5 mL Eppendorf tube. This was the ThT stock solution to be used in following experiments. 2 mL of a 1:200 diluted ThT solution was prepared by adding 10 μL ThT stock solution into 1990 μL PBS. The absorbance of the diluted ThT solution measured at 412 nm was used to calculate the ThT stock concentration using an extinction coefficient (c) of 31600 M^−1 cm^−1.
Preparation of hIAPP stocks. A 1 mg portion of amylin trifluoroacetate salt (Bachem) was purchased as lyophilized solid in a vial. The solid was dissolved in pre-chilled 2562 μL 35 mM sodium acetate (pH 5.3) to a stock concentration of 100 μM on ice. Aliquots of hIAPP were prepared by transferring 200 μL of the 100 μM hIAPP stock solution to low-protein-binding Eppendorf tubes on ice. The aliquots were then immediately snap frozen using liquid N2, lyophilized for 24 h, and stored at −80° C. until use.
Preparation of samples for ThT assays. Using cyclic peptide stock solution (100 μM) and PBS, 400 μL aqueous solution of cyclic peptide was prepared in a low-protein-binding Eppendorf tube to achieve the desired cyclic peptide:hIAPP molar ratio (80 μM for 4:1, 40 μM for 2:1, 20 μM for 1:1, 10 μM for 0.5:1, 0 μM for 0:1). 30 μL of the solution was then loaded to wells on a black clear-bottom low-binding 96-well plate (Corning 3881) to make a triplicate for each condition. This plate loaded with aqueous solutions of cyclic peptides was then ready for adding hIAPP.
Preparation and addition of hIAPP for ThT assays. Using ThT stock solution and PBS, 1 mL ThT solution (10 μM) was prepared in a low-protein-binding Eppendorf tube and chilled on ice. 0.5 mL of the pre-chilled ThT solution was added to one aliquot of lyophilized hIAPP, which was equilibrated to room temperature before opening the tube. Pipetting up and down four times was performed to facilitate complete dissolving of hIAPP. The 0.5 mL hIAPP-containing solution was immediately transferred to the remaining 0.5 mL ThT solution on ice. Pipetting up and down four times was performed to facilitate complete mixing. The resulting 1 mL hIAPP solution, where [hIAPP]=20 μM, was immediately transferred to a 25 mL liquid reservoir. Using a multi-channel pipette, 30 μL of the hIAPP solution was quickly loaded into wells containing aqueous solutions of cyclic peptides on the 96-well plate. Final [hIAPP]=10 μM, [ThT]=5 μM.
ThT assay conditions. The plate was then quickly covered and incubated in a Tecan M Plex microplate reader under quiescent condition at 32° C. for at least 12 h. ThT fluorescence at 480 nm was measured every 5 min through the bottom of the plate using an excitation wavelength of 440 nm.
Fitting of aggregation kinetics. ThT aggregation kinetics data was fit to a sigmoidal function using GraphPad Prism and the aggregation lag time (tlag) and the apparent fibril elongation rate (kapp) calculated as described.^55

Chain of hIAPP-T7n (P10997+P00573 fused): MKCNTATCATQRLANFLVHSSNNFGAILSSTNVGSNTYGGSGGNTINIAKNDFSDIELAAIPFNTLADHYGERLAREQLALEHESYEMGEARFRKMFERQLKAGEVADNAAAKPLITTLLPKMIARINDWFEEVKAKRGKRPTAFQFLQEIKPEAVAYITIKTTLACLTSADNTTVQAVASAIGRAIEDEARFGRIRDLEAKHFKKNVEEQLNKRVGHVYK
Chain of Aβ42-T7n (P05067+P00573 fused): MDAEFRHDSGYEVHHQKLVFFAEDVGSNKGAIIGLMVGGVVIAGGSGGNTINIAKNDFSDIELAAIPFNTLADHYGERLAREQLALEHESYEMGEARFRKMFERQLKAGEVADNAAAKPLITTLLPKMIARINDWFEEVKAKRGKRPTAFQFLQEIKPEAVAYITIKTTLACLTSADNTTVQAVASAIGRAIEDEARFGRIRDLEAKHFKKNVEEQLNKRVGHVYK

For CIYFHHH, at hIAPP-T7n, the “Percent total reads (positive selection)” value was determined as 0.12% and the “Rank (positive selection)” value was found to be 9. Moreover, on Aβ42-T7n, the “Fold enrichment in negative vs. positive selection” value is listed as 28.44, the “Percent total reads (negative selection)” value is given as 3.33% and the “Rank (negative selection)” value was 8.
In the case of CGLGHGN, at hIAPP-T7n, the “Percent total reads (positive selection)” value came out at 0.009% and the “Rank (positive selection)” value came to 53. For the same substance, at Aβ42-T7n, the “Fold enrichment in negative vs. positive selection” value came to 124.22, the “Percent total reads (negative selection)” value was determined as 1.12% and the “Rank (negative selection)” value is reported as 10.
Regarding CCGLYNI, on hIAPP-T7n, the “Percent total reads (positive selection)” value is 0.31% and the “Rank (positive selection)” value was determined as 5. Besides, at Aβ42-T7n, the “Fold enrichment in negative vs. positive selection” value was found to be 0.48, the “Percent total reads (negative selection)” value amounted to 0.15% and the “Rank (negative selection)” value is recorded as 31.
As for CVSYILL, at hIAPP-T7n, the “Percent total reads (positive selection)” value was determined as 0.11% and the “Rank (positive selection)” value is 10. In addition, at Aβ42-T7n, the “Fold enrichment in negative vs. positive selection” value was 4.21, the “Percent total reads (negative selection)” value worked out at 0.45% and the “Rank (negative selection)” value was 16.
On to linear CHVVGVI [linear CHWGVI], for which, in the experiment with hIAPP, the “inhibition of hIAPP aggregation (ThT fluorescence)” value (“inhibition of hIAPP aggregation” for short) is reported as “greatly reduced ability to inhibit hIAPP”.
With CCHSFFR, at hIAPP-T7n, the “Percent total reads (positive selection)” value came out at 0.29% and the “Rank (positive selection)” value was found to be 6. Further, at Aβ42-T7n, the “Fold enrichment in negative vs. positive selection” value is recorded as 2.87, the “Percent total reads (negative selection)” value is 0.83% and the “Rank (negative selection)” value is recorded as 12.
CLNYFHG: at hIAPP-T7n, the “Percent total reads (positive selection)” value stood at 0.35% and the “Rank (positive selection)” value was found to be 3. At Aβ42-T7n, the “Fold enrichment in negative vs. positive selection” value was found to be 20.08, the “Percent total reads (negative selection)” value is on record as 7.05% and the “Rank (negative selection)” value is listed as 3.
In the case of CYILSIG, at hIAPP-T7n, the “Percent total reads (positive selection)” value was 0.34% and the “Rank (positive selection)” value is on record as 4. Besides, at Aβ42-T7n, the “Fold enrichment in negative vs. positive selection” value was found to be 1.10, the “Percent total reads (negative selection)” value amounted to 0.37% and the “Rank (negative selection)” value amounted to 18.
Regarding linear CDLGVFR, the “inhibition of hIAPP aggregation” value with hIAPP was “completely inactive”.
CFFRGSD: at hIAPP-T7n, the “Percent total reads (positive selection)” value is given as 0.06% and the “Rank (positive selection)” value was 18. In addition, on Aβ42-T7n, the “Fold enrichment in negative vs. positive selection” value was found to be 81.53, the “Percent total reads (negative selection)” value turned out to be 4.73% and the “Rank (negative selection)” value turned out to be 6.
With CGIRSLG, at hIAPP-T7n, the “Percent total reads (positive selection)” value is reported as 0.22% and the “Rank (positive selection)” value is recorded as 7. In addition, at Aβ42-T7n, the “Fold enrichment in negative vs. positive selection” value is 20.09, the “Percent total reads (negative selection)” value amounted to 4.48% and the “Rank (negative selection)” value stood at 7.
As for linear CRCVFSG [linear CRCVSFG], the “inhibition of hIAPP aggregation” value with hIAPP is listed as “moderately inhibited hNAPP aggregation”.
CNRLDVS: on hIAPP-T7n, the “Percent total reads (positive selection)” value stood at 0.02% and the “Rank (positive selection)” value is on record as 26. Also, at Aβ42-T7n, the “Fold enrichment in negative vs. positive selection” value is 83.68, the “Percent total reads (negative selection)” value worked out at 1.84% and the “Rank (negative selection)” value is given as 9.
Consider CHVHSYL, for which, on hIAPP-T7n, the “Percent total reads (positive selection)” value is given as 1.82% and the “Rank (positive selection)” value was 2. Further, on Aβ42-T7n, the “Fold enrichment in negative vs. positive selection” value amounted to 3.31, the “Percent total reads (negative selection)” value was determined as 6.03% and the “Rank (negative selection)” value came to 4.
CISCHYG: at hIAPP-T7n, the “Percent total reads (positive selection)” value is given as 0.13% and the “Rank (positive selection)” value turned out to be 8. Besides, on Aβ42-T7n, the “Fold enrichment in negative vs. positive selection” value worked out at 0.92, the “Percent total reads (negative selection)” value turned out to be 0.12% and the “Rank (negative selection)” value is 34.
On the same counts, the results for CFNLVVD are 0.08%, 15, 64.65, 4.85% and 5.
